{
  "source": "patent US6875571B2",
  "about": "“NF-AT polypeptides and polynucleotides and screening methods for immunosuppressive agents” (The Board of Trustees of the Leland Stanford Junior …, priority 1991, dated 2005)",
  "molecules": {"B1": {"name": "NF-ATc: human cytosolic NF-AT subunit, protein of 716 amino acids (SEQ ID NO: 38), expressed from cDNA (protein)", "chain": "MPSTSFPVPSKFPLGPAAAVFGRGETLGPAPRAGGTMKSAEEEHYGYASSNVSPALPLPTAHSTLPAPCHNLQTSTPGIIPPADHPSGYGAALDGCPAGYFLSSGHTRPDGAPALESPRIEITSCLGLYHNNNQFFHDVEVEDVLPSSKRSPSTATLSLPSLEAYRDPSCLSPASSLSSRSCNSEASSYESNYSYPYASPQTSPWQSPCVSPKTTDPEEGFPRGLGACTLLGSPQHSPSTSPRASVTEESWLGARSSRPASPCNKRKYSLNGRQPPYSPHHSPTPSPHGSPRVSVTDDSWLGNTTQYTSSAIVAAINALTTDSSLDLGDGVPVKSRKTTLEQPPSVALKVEPVGEDLGSPPPPADFAPEDYSSFQHIRKGGFCDQYLAVPQHPYQWAKPKPLSPTSYMSPTLPALDWQLPSHSGPYELRIEVQPKSHHRAHYETEGSRGAVKASAGGHPIVQLHGYLENEPLMLQLFIGTADDRLLRPHAFYQVHRITGKTVSTTSHEAILSNTKVLEIPLLPENSMRAVIDCACILKLRNSDIELRKGETDIGRKNTRVRLVFRVHVPQPSGRTLSLQVASNPIECSQRSAQELPLVEKQSTDSYPVVGGKKMVLSGHNFLQDSKVIFVEKAPDGHHVWEMEAKTDRDLCKPNSLVVEIPPFRNQRITSPVHVSFYVCNGKRKRSQYQRFTYLPANGNAIFLTVSREHERVGCFF", "modifications": "human"}},
  "key": {"NF-AT [1]": {"system": "NF-AT", "assay": "Gel mobility shift assay of NF-AT DNA binding activity in extracts of treated Jurkat cells", "format": "cell-based, human", "experimental": "Nuclear extracts were made according to the procedures of Ohlsson and Edlund (Cell 45:35 (1986)). Briefly, nuclei were extracted with 0.3 M (NH4)2SO4 and the fraction that contained the nuclear proteins was precipitated with 0.2 g/ml (NH4)2SO4 and dialyzed for 4 h. at 4° C. The NF-AT binding site of the IL-2 enhancer (−290 and −263) was used as a probe for binding activity. The binding experiment was carried out essentially as described in Shaw, J. P. Science 241:202-205 (1988)).\nNFATZ Jurkat cells were pretreated with 100 μM anisoymycin (Sigma), a protein synthesis inhibitor, for 30 minutes before stimulating the cells. Conditions for activating the cells and preparing nuclear and cytoplasmic extracts are described in Example 3.\n(§1) NFATZ Jurkat cells and JK12/90.1 cells (a gift from N. Shastri) were stimulated for 2 hours with 20 ng/ml PMA and 2 μM ionomycin. […] Nuclear extracts were prepared as described previously with modifications. Cytoplasmic extracts were made from the same cells as the nuclear extracts. Following lysis of the cells with buffer A [10 mM Hepes (pH 7.8), 15 mM Kcl, 2 mM MgCl2, 1 mM DTT, 0.1 mM EDTA, 0.1 mM PMSF] plus 0.05% NP-40, and pelleting of the nuclei, the cytoplasmic fraction was removed and stabilized with 10% (vol/vol) glycerol and 1/10 volume of buffer B [0.3 M Hepes (pH 7.8), 1.4 M Kcl, and 30 mM MgCl2]. The cytoplasmic extract was centrifuged at 200,000 g for 15 minutes. An equal volume of 3 M (NH4)2SO4 (pH 7.9) was added to the supernatant, and precipitated proteins were pelleted at 100,000 g for 10 minutes. The pelleted cytoplasmic proteins were resuspended in buffer C [50 mM Hepes (pH 7.8), 50 mM KCl, 1 mM DTT, 0.1 mM EDTA, 0.1 mM PMSF, 10% (vol/vol) glycerol] and desalted by passage over a P6DG column (BioRad). Protein concentrations were determined using a BioRad protein assay kit. To assess the completeness of the nuclear and cytoplasmic fractionation, we assayed for Oct-1 (a constitutive nuclear located DNA binding protein) binding activity and β-galactosidase (cytoplasmic localized) enzyme activity. […]"}, "[2]": {"system": "NFATZ Jurkat cells and JK12/90.1 cells", "assay": "Toxic effects on the stimulated cells", "format": "cell-based", "conditions": "FK506 100 ng/ml or CsA 500 ng/ml, five minutes prior to PMA and ionomycin, 2 hours"}, "[3]": {"system": "nuclear component of NF-AT", "assay": "Reconstitution of NF-AT binding: synthesis of the nuclear component", "format": "cell-based, human", "conditions": "PMA/ionomycin-stimulated cells", "experimental": "as §1"}, "NF-AT [4]": {"system": "NF-AT", "assay": "In vitro transcription directed by multimerized NF-AT binding sites (G-less) by nuclear extracts of treated Jurkat cells", "format": "cell-based, human", "conditions": "nuclear extracts of stimulated/FK506-treated cells, 10 ng/ml", "experimental": "The effect of FK506 on the ability of NF-AT to direct transcription was tested by preparing nuclear extracts from stimulated or stimulated/FK506-treated cells and testing their ability to transcribe a G-less cassette in which transcription was dependent upon three NF-AT sites located within a synthetic promoter.\nPromoter constructs, nuclear extracts and transcription reactions were prepared as described. NFATZ Jurkat cells, derived from a human T cell leukemia, were stimulated with […] PMA (Sigma), 2 μM ionomycin (Calbiochem) for 2 hours. FK506 was used at 10 ng/ml and added five minutes prior to the addition of PMA and ionomycin. […] Transcription was quantitated using a radioanalytic imaging system (AMBIS). […]\nIn general, transcription reactions (20 μl) contained 40 μg/ml of circular DNA template [400 ng of the test construct, 40 ng of the AdMLP G-less construct, and 360 ng of poly dI-dC (Pharmacia)] and between 3-5 mg/ml nuclear protein extract in a buffer containing 25 mM Hepes (pH 7.6), 50 mM KCl, 6 mM MgCl2, 0.6 mM each of ATP and CTP, 7 μM UTP, 7 μCi [a-^32P] […] The pellets were rinsed with 70% ethanol, air dried, and resuspended in 10 μl of loading dye (90% formamide, 0.01% xylene cyanol, and 0.01% bromophenol blue in 1×TBE.) The transcripts were analyzed on 6% denaturing polyacrylamide gels. […]"}, "NF-ATc": {"system": "NF-ATc", "assay": "Western blot mobility of epitope tagged NF-ATc expressed in Jurkat cells", "format": "cell-based, human", "conditions": "stimulated 2 hrs, whole cell lysates", "experimental": "Whole cell lysates were analyzed by western blotting as in FIG. 13.\nThe cDNA shown in FIG. 12 was fused to the Hemophilus influenza hemaglutinin (HA) 12 amino acid epitope tag in the determined reading frame and operably linked to the SRα promoter in the vector pBJ5 (Lin et al, 1990, Science 249:677-679). The resultant construct was transiently transfected by electroporation into Jurkat human T lymphocytes, and into Cos fibroblast cells. Expression of the epitope-tagged NF-ATc protein was determined by Western blotting of whole cell extracts prepared from the transfected cells, using an antibody (12CA5, Berkeley Antibody Co., CA) that detects the HA epitope.\nPost-translational modification of NF-ATc was investigated in cells treated with agents that activate PKC or increase intracellular Ca++. […] Whole cell lysates were analyzed by western blotting as in FIG. 13. […] This is consistent with a dephosphorylation event, possibly by direct action of calcineurin (Clipstone and Crabtree (1992) Nature 357: 695-697), however, any of a large number of processes could produce the observed mobility changes. There is evidence that NF-ATp is a substrate for calcineurin, however, the mobility shifts produced by phosphatase treatment of NF-ATp or NF-ATc are far greater than those observed in FIG. 19. These observations indicate that NF-ATc is not a direct substrate of calcineurin."}, "IL-2 promoter": {"system": "IL-2 promoter", "assay": "IL-2 enhancer/promoter luciferase reporter co-transfected with NF-ATc expression vector in Cos cells", "format": "cell-based", "conditions": "overexpression in Cos cells", "experimental": "(§2) The NF-ATc cDNA was operably linked to a portion of the SV40 early gene promoter and the mV transcription regulatory regions in the pBJ vector. This expression vector was co-tranfected into Jurkat and Cos cells with either a) three copies of NF-AT binding site linked to and directing transcription of luciferase (results shown in FIGS. 14A and 14B) the entire IL-2 enhancer/promoter directing transcription of luciferase (results shown in FIG. 14B). Cytosolic extracts were prepared and luciferase assays carried out by standard procedures (de Wet et al, 1987, Mol. Cell. Biol. 7:724-[…])."}, "NF-AT binding site": {"system": "NF-AT binding site", "assay": "NF-AT luciferase reporter co-transfected with NF-ATc expression vector in Cos and Jurkat cells", "format": "cell-based", "conditions": "overexpression in Cos cells and Jurkat cells", "experimental": "as §2"}},
  "data": [
    {"molecule": "COc1ccc(C[C@H]2NC[C@H](O)[C@H]2OC(C)=O)cc1", "note": "[anisomycin]", "values": [
      {"measurement": "appearance of the NF-AT complex in activated T cells", "setting": "NF-AT [1]; NFATZ Jurkat cells pretreated with 100 μM for 30 minutes before stimulation", "result": "completely blocked"},
      {"measurement": "ability of cytoplasmic extracts from treated cells to reconstitute the NF-AT complex", "setting": "NF-AT [1]; cytoplasmic extracts of cells grown with 100 μM protein synthesis inhibitor", "result": "able to reconstitute"}
    ]},
    {"molecule": "C=CC[C@@H]1/C=C(\\C)C[C@H](C)C[C@H](OC)[C@H]2O[C@@](O)(C(=O)C(=O)N3CCCC[C@H]3C(=O)O[C@H](/C(C)=C/[C@@H]3CC[C@@H](O)[C@H](OC)C3)[C@H](C)[C@@H](O)CC1=O)[C@H](C)C[C@@H]2OC", "note": "[FK506]", "values": [
      {"measurement": "toxic effects to the cells", "setting": "[2]", "result": "without any toxic effects"},
      {"measurement": "reduction of NF-AT DNA-binding activity in the extracts", "setting": "NF-AT [1]; nuclear extracts of stimulated/FK506-treated cells, 10 ng/ml", "result": "50 to 80", "unit": "%"},
      {"measurement": "synthesis of the nuclear component of NF-AT", "setting": "[3]", "result": "did not inhibit"},
      {"measurement": "reduction of in vitro transcription directed by multimerized NF-AT binding sites", "setting": "NF-AT [4]", "result": 2.5, "unit": "fold"}
    ]},
    {"molecule": "C[C@H](CCC(=O)O)C[C@H](C)C[C@H](C)C(=O)/C=C(\\O)[C@H](C)C[C@H](C)C/C=C/[C@@H](C)[C@@H](O)[C@@H](C)[C@@H](O)C[C@@H]1CC[C@@](C)([C@H]2CC[C@@](C)([C@@H](C)O)O2)O1", "note": "[ionomycin]", "values": [
      {"measurement": "mobility of NF-ATc versus non-treated cells", "setting": "NF-ATc", "result": "migrates faster"}
    ]},
    {"molecule": "CCCCCCCCCCCCCC(=O)O[C@@H]1[C@@H](C)[C@@]2(O)[C@@H](C=C(CO)C[C@]3(O)C(=O)C(C)=C[C@@H]23)[C@@H]2C(C)(C)[C@]12OC(C)=O", "note": "[PMA, phorbol myristate acetate]", "values": [
      {"measurement": "mobility of NF-ATc versus non-treated cells", "setting": "NF-ATc", "result": "slower migrating"}
    ]},
    {"molecule": "B1", "values": [
      {"measurement": "activation of the IL-2 promoter", "setting": "IL-2 promoter", "result": "activates"},
      {"measurement": "enhancement of NF-AT-dependent transcription", "setting": "NF-AT binding site", "result": "50-1000 fold"}
    ]}
  ]
}
